Four compounds from ChEMBL document CHEMBL1201862, “PubChem BioAssay data set” (2004) can be followed below.

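Values below derive from 48-hour exposures of cells grown in 96-well plates, with endpoints linearly interpolated between the two concentrations bracketing the appropriate inhibition level. The concentration for 50% growth inhibition is given as GI50.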 Activity calls are given as the source filed them. Rule as the data show it: active = GI50 up to about 1.1 µM and inactive = higher.

Experiment in all cases: NCI anticancer screen, dose series, 48 h
Assay [1] concerns SNB-75.
The subject of assay [2] is MOLT-4.
Assay [3] relates to TK-10.
In assay [4] the test system is LXFL 529.
In assay [5] the test system is HOP-92.
Assay [6] has as its system HCC 2998.
Assay [7] concerns PC-3.
For assay [8], the system named is M19-MEL.
The test system of assay [9] is MDA-N.
Assay [10] relates to OVCAR-4.
Assay [11] has as its system SW-620.
For assay [12], the system named is IGROV-1.
Assay [13] has as its system SNB-19.
The test system of assay [14] is MDA-MB-435.
The subject of assay [15] is SF-295.
Assay [16] relates to MDA-MB-231.
The subject of assay [17] is SK-MEL-2.
For assay [18], the system named is CAKI-1.
For assay [19], the system named is NCI-H226.
In assay [20] the test system is BT-549.

Regarding `N=C(N)NCCCS(=O)(=O)Nc1ccc(Nc2c3ccccc3nc3cc([N+](=O)[O-])ccc23)cc1`, the GI50 in [1] was 13 µM (inactive); in assay [2], 2.33 µM (inactive); in [3], 21.2 µM (inactive); in [4] it was 5.62 µM (inactive); in assay [5], 4.9 µM (inactive); in assay [6], 14.7 µM (inactive). In addition, the GI50 is 11.7 µM (inactive) in assay [7]; 3.63 µM (inactive) in assay [8]; 21.3 µM (inactive) in assay [9]; 16.6 µM (inactive) in assay [10]; 14.9 µM (inactive) in assay [11]; 18.4 µM (inactive) in assay [12]. In addition, the GI50 was 2.9 µM (inactive) in assay [13]; > 100 µM (inactive) in assay [14]; 20.3 µM (inactive) in assay [15]; 35.2 µM (inactive) in [16]; 21.6 µM (inactive) in assay [17]; 40.8 µM (inactive) in assay [18]. The GI50 in assay [19] was 11.7 µM (inactive); in [20] it was 27.2 µM (inactive).

With `CN(C)CCNc1ccc2nnn3c4ccc(Cl)cc4c(=O)c1c23`, the GI50 in [1] was 3.01 µM (inactive); in assay [2] it was 0.624 µM (active); in assay [3] it was 5 µM (inactive); in assay [4], 3.23 µM (inactive); in assay [5], 3.69 µM (inactive); in [6], 8.67 µM (inactive). Besides, the GI50 in assay [7] is 2.76 µM (inactive); in [8] it was 3.51 µM (inactive); in assay [9] it was 3.52 µM (inactive); in assay [10], 2.94 µM (inactive); in assay [11], 1.03 µM (active); in assay [12] it was 3.65 µM (inactive). Moreover, the GI50 in assay [13] was 4.17 µM (inactive); in [14] it was 4.65 µM (inactive); in [15] it was 2.85 µM (inactive); in assay [16], 11.1 µM (inactive); in [17], 6.19 µM (inactive); in assay [18] it was 2.25 µM (inactive). In addition, the figures for the GI50 in assay [19] and in assay [20] were 2.06 µM (inactive) and 16 µM (inactive), respectively.

In the case of `Nc1nc(N)c(CCCCc2ccccc2)c(N)n1`, the GI50 is 60.7 µM (inactive) in assay [1]; > 100 µM (inactive) in assay [2]; > 100 µM (inactive) in [3]; > 100 µM (inactive) in [4]; > 100 µM (inactive) in [5]; > 100 µM (inactive) in assay [6]. The GI50 in assay [7], in assay [8], in assay [9], in [10], in assay [11] and in [12] was > 100 µM (inactive) in each case. Further, the GI50 in [13], in assay [14], in assay [15], in assay [16], in assay [17] and in assay [18] was > 100 µM (inactive) throughout. For the same compound, the GI50 in assay [19] and in assay [20] was > 100 µM (inactive) in each case.

With `COC(COC(N)=O)C1=C(N2CC2)C(=O)C(C)=C(N2CC2)C1=O` (stereo not given) [CARBOQUONE], the GI50 was 0.0246 µM (active) in [1]; 0.0418 µM (active) in assay [2]; 0.239 µM (active) in [3]; 0.196 µM (active) in [4]; 0.219 µM (active) in [5]; 0.131 µM (active) in [6]. For the same compound, the GI50 in [7] was 0.213 µM (active); in [8], 0.0968 µM (active); in assay [9], 0.108 µM (active); in [10], 0.126 µM (active); in [11], 0.0302 µM (active); in [12] it was 0.197 µM (active). Moreover, the GI50 was 0.0646 µM (active) in assay [13]; 0.0359 µM (active) in [14]; 0.0178 µM (active) in [15]; 0.292 µM (active) in assay [16]; 0.193 µM (active) in assay [17]; < 0.0119 µM (active) in assay [18]. For the same compound, the GI50 in assay [19] was 0.0719 µM (active); in assay [20], 0.103 µM (active).
